Measured values taken from PubChem BioAssay (NCI).
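Each compound was tested at five concentrations against cells in 96-well plates for 48 hours. GI50: concentration for 50% inhibition of growth. TGI marks complete inhibition of growth.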

Experiments:
Experiment in all cases: inhibition of tumour cell growth, NCI panel, 48 h
[1] = test system: SF-268 CNS
[2] = test system: IGROV1 ovarian
[3] = test system: HL-60(TB) leukemia
[4] = test system: NCI-H522 lung
[5] = test system: CAKI-1 renal
[6] = test system: SF-539 CNS
[7] = test system: UO-31 renal
[8] = test system: MOLT-4 leukemia
[9] = test system: BT-549 breast
[10] = test system: DU-145 prostate
[11] = test system: UACC-62 melanoma
[12] = test system: NCI-H23 lung
[13] = test system: HOP-92 NSCLC
[14] = test system: HCT-15 colon
[15] = test system: SF-295 CNS
[16] = test system: T-47D breast
[17] = test system: NCI-H460 lung
[18] = test system: COLO 205 colon
[19] = test system: A549 NSCLC
[20] = test system: MDA-MB-231 breast
[21] = test system: HOP-62 NSCLC
[22] = test system: UACC-257 melanoma
[23] = test system: OVCAR-3 ovarian
[24] = test system: M14 melanoma
[25] = test system: SW-620 colon
[26] = test system: HCC-2998 colon
[27] = test system: MCF7 breast
[28] = test system: SK-MEL-5 melanoma
[29] = test system: MDA-MB-435
[30] = test system: HCT-116 colon
[31] = test system: TK-10 renal
[32] = test system: ACHN renal
[33] = test system: U251 CNS
[34] = test system: RXF 393 renal
[35] = test system: KM12 colon
[36] = test system: SK-MEL-2 melanoma
[37] = test system: HS 578T breast
[38] = test system: LOX IMVI melanoma
[39] = test system: OVCAR-5 ovarian
[40] = test system: SN12C renal
[41] = test system: SK-OV-3 ovarian
[42] = test system: RPMI-8226 leukemia
[43] = test system: 786-0 renal
[44] = test system: CCRF-CEM leukemia
[45] = test system: K-562 leukemia
[46] = test system: PC-3 prostate
[47] = test system: NCI/ADR-RES ovarian
[48] = test system: OVCAR-8 ovarian
[49] = test system: SR leukemia
[50] = test system: SNB-19 CNS
[51] = test system: EKVX NSCLC

## Cc1c(O)c(N=Nc2nc3ccccc3s2)c2ccccc2c1O
[1]
  GI50: 18.2 µM
  TGI: > 50 µM
[2]
  GI50: 17.6 µM
  TGI: > 50 µM
[3]
  GI50: > 50 µM
  TGI: > 50 µM
[4]
  GI50: 19.1 µM
  TGI: 46.6 µM
[5]
  GI50: 21.1 µM
  TGI: > 50 µM
[6]
  GI50: 18.3 µM
  TGI: > 50 µM
[7]
  GI50: 18.8 µM
  TGI: > 50 µM
[8]
  GI50: > 50 µM
  TGI: > 50 µM
[9]
  GI50: 15.5 µM
  TGI: > 50 µM
[10]
  GI50: 23.4 µM
  TGI: > 50 µM
[11]
  GI50: 15.3 µM
  TGI: > 50 µM
[12]
  GI50: 13.9 µM
  TGI: > 50 µM
[13]
  GI50: 33.9 µM
  TGI: > 50 µM
[14]
  GI50: 23.3 µM
  TGI: > 50 µM
[15]
  GI50: 24.7 µM
  TGI: > 50 µM
[16]
  GI50: 39.2 µM
  TGI: > 50 µM
[17]
  GI50: 28 µM
  TGI: > 50 µM
[18]
  GI50: 21.4 µM
  TGI: > 50 µM
[19]
  GI50: 19.8 µM
  TGI: > 50 µM
[20]
  GI50: 26.5 µM
  TGI: > 50 µM
[21]
  GI50: > 50 µM
  TGI: > 50 µM
[22]
  GI50: 14.7 µM
  TGI: 36.1 µM
[23]
  GI50: 12.3 µM
  TGI: > 50 µM
[24]
  GI50: 33.5 µM
  TGI: > 50 µM
[25]
  GI50: 25.9 µM
  TGI: > 50 µM
[26]
  GI50: > 50 µM
  TGI: > 50 µM
[27]
  GI50: > 50 µM
  TGI: > 50 µM
[28]
  GI50: 8.85 µM
  TGI: 21.2 µM
[29]
  GI50: 19.8 µM
  TGI: > 50 µM
[30]
  GI50: 22.6 µM
  TGI: > 50 µM
[31]
  GI50: > 50 µM
  TGI: > 50 µM
[32]
  GI50: 19.4 µM
  TGI: > 50 µM
[33]
  GI50: 25.5 µM
  TGI: > 50 µM
[34]
  GI50: 12.5 µM
  TGI: 39.7 µM
[35]
  GI50: 23.2 µM
  TGI: > 50 µM
[36]
  GI50: 17.3 µM
  TGI: 43.2 µM
[37]
  GI50: 28.9 µM
  TGI: > 50 µM
[38]
  GI50: 29.7 µM
  TGI: > 50 µM
[39]
  GI50: > 50 µM
  TGI: > 50 µM
[40]
  GI50: 16.7 µM
  TGI: > 50 µM
[41]
  GI50: 30.1 µM
  TGI: > 50 µM
[42]
  GI50: 23.6 µM
  TGI: > 50 µM
[43]
  GI50: > 50 µM
  TGI: > 50 µM
[44]
  GI50: > 50 µM
  TGI: > 50 µM
[45]
  GI50: 14.7 µM
  TGI: 48.3 µM
[46]
  GI50: 32 µM
  TGI: > 50 µM
[47]
  GI50: 34.3 µM
  TGI: > 50 µM
[48]
  GI50: 19.7 µM
  TGI: > 50 µM
[49]
  GI50: > 50 µM
  TGI: > 50 µM
[50]
  GI50: 28.4 µM
  TGI: > 50 µM
[51]
  GI50: 13.3 µM
  TGI: > 50 µM
